Assay results taken from publication PMC8158844 (ACS Omega, 2021).
Where “and” joins values, the source holds several entries; their conditions need not be identical. Equal entries are not always repeated.

Experiments:
[1] = Chemical stability in aqueous solution; type: physicochemical; conditions: PBS buffer pH 7.4 with 0.2% Triton X-100; 60 min, 37 °C
[2] = molecular target: T1, porcine albumin (Sus scrofa, UniProt P08835); experiment: Stability in porcine albumin solution; type: in vitro ADME; conditions: porcine albumin 17.5 mg/mL in PBS; 30 min, 37 °C
[3] = Metabolic stability in porcine blood plasma; type: in vitro ADME; conditions: Table 3; 30 min, 37 °C; n = 3 unless otherwise stated
[4] = molecular target: BuChE (Equus caballus, UniProt P81908); experiment: Inhibition of butyrylcholinesterase; type: biochemical, horse; conditions: read-out: BuChE inhibition at 10 μM
[5] = Metabolic stability in porcine liver S9 fraction; type: in vitro ADME; conditions: 30 min; for stability porcine liver S9 fractions (percent of parent remaining): 37 °C, no NADPH added
[6] = molecular target: T2, FAAH (Rattus norvegicus, UniProt P97612); experiment: Inhibition of fatty acid amide hydrolase; type: biochemical
T2 sequence (P97612 1-579): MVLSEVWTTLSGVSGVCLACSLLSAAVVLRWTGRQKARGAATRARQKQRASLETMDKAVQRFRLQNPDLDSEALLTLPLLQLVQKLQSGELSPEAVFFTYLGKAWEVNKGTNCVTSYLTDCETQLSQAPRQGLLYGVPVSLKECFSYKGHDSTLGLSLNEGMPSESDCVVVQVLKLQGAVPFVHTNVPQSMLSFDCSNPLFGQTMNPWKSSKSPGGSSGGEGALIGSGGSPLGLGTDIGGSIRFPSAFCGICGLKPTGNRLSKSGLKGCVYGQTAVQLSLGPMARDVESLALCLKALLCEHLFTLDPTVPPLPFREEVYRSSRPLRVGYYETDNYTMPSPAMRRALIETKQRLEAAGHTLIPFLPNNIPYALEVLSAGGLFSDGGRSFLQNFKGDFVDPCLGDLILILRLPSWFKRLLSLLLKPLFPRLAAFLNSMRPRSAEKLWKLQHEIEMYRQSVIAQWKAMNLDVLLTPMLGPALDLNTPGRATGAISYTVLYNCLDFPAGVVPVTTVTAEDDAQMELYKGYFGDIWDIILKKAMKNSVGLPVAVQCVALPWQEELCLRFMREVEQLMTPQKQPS

[7] = molecular target: T3, human recombinant MAGL (Homo sapiens, UniProt Q99685); experiment: Inhibition of monoacylglycerol lipase; type: biochemical
T3 sequence (Q99685 1-303): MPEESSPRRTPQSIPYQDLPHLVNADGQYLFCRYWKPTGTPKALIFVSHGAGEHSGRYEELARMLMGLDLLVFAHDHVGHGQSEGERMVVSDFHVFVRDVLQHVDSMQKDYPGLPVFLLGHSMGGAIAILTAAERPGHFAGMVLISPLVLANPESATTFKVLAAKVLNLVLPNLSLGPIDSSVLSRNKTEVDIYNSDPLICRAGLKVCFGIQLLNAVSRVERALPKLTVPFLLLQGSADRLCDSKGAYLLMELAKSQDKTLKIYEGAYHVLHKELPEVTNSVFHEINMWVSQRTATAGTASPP

[8] = molecular target: T1, porcine albumin; experiment: Reaction with porcine albumin investigated by MS; conditions: 60 min, 37 °C; molar ratio compound/albumin 4:1

T1 sequence (P08835 25-607): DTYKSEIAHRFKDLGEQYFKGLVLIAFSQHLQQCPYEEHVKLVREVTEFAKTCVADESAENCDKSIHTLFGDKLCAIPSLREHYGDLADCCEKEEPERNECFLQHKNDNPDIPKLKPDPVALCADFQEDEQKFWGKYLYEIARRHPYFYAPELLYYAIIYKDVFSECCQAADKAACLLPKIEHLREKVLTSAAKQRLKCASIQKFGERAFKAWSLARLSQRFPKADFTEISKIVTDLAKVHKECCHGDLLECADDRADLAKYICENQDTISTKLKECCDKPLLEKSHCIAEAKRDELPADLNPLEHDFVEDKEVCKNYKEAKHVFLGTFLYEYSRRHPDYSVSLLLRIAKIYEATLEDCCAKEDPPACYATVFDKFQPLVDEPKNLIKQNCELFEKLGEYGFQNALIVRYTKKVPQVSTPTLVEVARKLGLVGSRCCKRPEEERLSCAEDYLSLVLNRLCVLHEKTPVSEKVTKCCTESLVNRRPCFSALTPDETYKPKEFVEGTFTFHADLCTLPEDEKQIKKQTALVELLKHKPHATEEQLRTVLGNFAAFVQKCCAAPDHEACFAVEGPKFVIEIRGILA
Sequence of BuChE (P81908 whole entry): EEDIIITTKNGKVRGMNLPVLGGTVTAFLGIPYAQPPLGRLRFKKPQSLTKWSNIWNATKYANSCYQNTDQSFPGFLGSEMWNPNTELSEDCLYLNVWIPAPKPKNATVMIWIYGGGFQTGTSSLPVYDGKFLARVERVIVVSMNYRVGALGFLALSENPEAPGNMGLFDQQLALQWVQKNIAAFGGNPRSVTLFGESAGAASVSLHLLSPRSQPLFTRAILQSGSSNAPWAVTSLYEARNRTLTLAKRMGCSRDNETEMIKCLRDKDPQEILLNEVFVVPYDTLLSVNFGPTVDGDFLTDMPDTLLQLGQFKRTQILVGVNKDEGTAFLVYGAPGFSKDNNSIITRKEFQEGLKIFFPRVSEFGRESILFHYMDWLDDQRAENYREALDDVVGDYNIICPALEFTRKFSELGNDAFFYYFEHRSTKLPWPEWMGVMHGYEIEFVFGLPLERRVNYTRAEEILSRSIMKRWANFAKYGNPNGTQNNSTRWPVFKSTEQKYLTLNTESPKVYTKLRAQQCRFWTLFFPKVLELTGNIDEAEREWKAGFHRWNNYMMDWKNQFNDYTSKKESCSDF

Row | SMILES | stability in PBS buffer (percent of parent remaining) [1] [%] | stability porcine albumin solution (percent of parent remaining) [2] | stability porcine blood plasma (percent of parent remaining) [3] [%] | inhibition at 10 µM [4] [%] | stability porcine liver S9 fractions (percent of parent remaining) [5] [%] | IC50 [6] [nM] | decrease in FAAH inhibitory activity compared with compound 14 ([6]; ratio of FAAH IC50 values) | IC50 [7] [nM] | stability in the absence of BNNP (percent of parent remaining) ([5]; porcine liver homogenate) [%] | stability in the presence of BNNP (percent of parent remaining) ([5]; porcine liver homogenate, carboxylesterase 1 inhibitor BNPP 1 mM) [%] | number of carbamate molecules bound to albumin in the most intense MS signal [8]
1 | O=C(O)Cc1ccc(OC(=O)NCCCCCn2ccc3ccc(F)cc32)cc1 [Compound 39, 2-[4-({[5-(6-Fluoroindol-1-yl)pentyl]carbamoyl}oxy)phenyl]acetic Acid] | >95 | >95% | 88 ± 4 | 38 | 85 ± 3 | 14 | – | – | – | – | –
2 | O=C(O)Cc1ccccc1OC(=O)NCCCCCn1ccc2ccc(F)cc21 [Compound 43] | >95 | 89 ± 3% | 89 ± 1 | 34 | 82 ± 5 | 4200 | more than 100 fold | – | – | – | –
3 | Cc1ccncc1OC(=O)NCCCCCn1ccc2ccc(F)cc21 [Compound 46, 4-Methylpyridin-3-yl N-[5-(6-fluoroindol-1-yl)pentyl]carbamate] | 74 ± 4 | 68% and 68 ± 6% | 8 ± 2 | – | 56 ± 8 | 3 | – | 150 | 56 ± 8 | 76 ± 5 | dual
4 | Cc1cncc(OC(=O)NCCCCCn2ccc3ccc(F)cc32)c1 [Compound 47] | 72 ± 4 | 37% and 37 ± 4% | <5 | – | 57 ± 5 | 2 | – | 150 | – | – | three
5 | NC(=O)c1cccc(-c2cccc(OC(=O)NC3CCCCC3)c2)c1 [URB597 (1), reference compound] | >95 | 95 ± 7% | – | 35 | 80 ± 4 | – | – | – | – | – | –
